Test results published in ChEMBL document CHEMBL1148589, “Rationally designed nucleoside antibiotics that inhibit siderophore biosynthesis of Mycobacterium tuberculosis” (J Med Chem, 2006).
In brackets after ≈: the same amount, converted by molar mass.

Key:
[1] = test system: Mycobacterium tuberculosis; experiment: Inhibitory activity against Mycobacterium tuberculosis H37Rv; type: functional
P388 = experiment: Cytotoxicity against P388 murine leukemia cell line at 100-200 uM; type: functional; conditions: Mus musculus, read-out: ED50 (the source's name)
[2] = Dissociation constant, pKa of the compound; type: physicochemical
[3] = Therapeutic index (ED50/MIC50); type: cell-based; conditions: mouse, P388 cells; read-out: Ratio ED50/MIC50

Row | SMILES | MIC50 [1] [µM] | MIC99 [1] [µM] | EC50 (P388) [µg/mL] | pKa [2] | selectivity ratio [3]
1 | Nc1ncnc2c1ncn2[C@@H]1O[C@H](Cn2cc(C(=O)c3ccccc3O)nn2)[C@@H](O)[C@H]1O | > 100 | > 100 | > 100 | – | –
2 | Nc1ncnc2c1ncn2[C@@H]1O[C@H](COP(=O)(O)CC(=O)c2ccccc2O)[C@@H](O)[C@H]1O | > 100 | > 100 | > 100 | 2 | –
3 | Nc1ncnc2c1ncn2[C@@H]1O[C@H](COS(=O)(=O)NC(=O)c2ccccc2O)[C@@H](O)[C@H]1O | 0.091 (≈ 0.0424 µg/mL) | 0.29 (≈ 0.135 µg/mL) | > 100 | – | –
4 | Nc1ncnc2c1ncn2[C@@H]1O[C@H](COS(=O)(=O)NCc2ccccc2O)[C@@H](O)[C@H]1O | > 100 | > 100 | > 100 | 8.5 | –
5 | Nc1ncnc2c1ncn2[C@@H]1O[C@H](CNS(=O)(=O)NC(=O)c2ccccc2O)[C@@H](O)[C@H]1O | 0.077 (≈ 0.0358 µg/mL) | 0.19 (≈ 0.0884 µg/mL) | > 100 | – | > 900
6 | Nc1ccccc1C(=O)NS(=O)(=O)OC[C@H]1O[C@@H](n2cnc3c(N)ncnc32)[C@H](O)[C@@H]1O | 30.9 (≈ 14.4 µg/mL) | > 100 | > 100 | – | –
7 | Nc1ncnc2c1ncn2[C@@H]1O[C@H](COS(=O)(=O)NC(=O)c2ccccc2)[C@@H](O)[C@H]1O | 4.5 (≈ 2.03 µg/mL) | 12.5 (≈ 5.63 µg/mL) | > 100 | 2.8 | –
8 | NNC(=O)c1ccncc1 [ISONIAZID] | – | 0.18 (≈ 0.0247 µg/mL) | – | – | –
